# Test results taken from patent publication US10308643B2, “Heterocyclic compound” (Takeda Pharmaceutical Company Limited, priority 2015, dated 2019).
# Assays:
# Format in all cases: biochemical
# HDAC6 enzyme = molecular target: T1, HDAC6 enzyme (Homo sapiens, UniProt Q9UBN7); assay: HDAC1/6 Enzyme Inhibitory Assay (HDAC-Glo I/II Assay kit), HDAC6; details: 1 μM test compound, wells without enzyme = 100% inhibition; for inhibition at 1 µM: read-out: HDAC6 inhibitory rate (%) (1 μM)
# T1 construct: transducing full length HDAC1 and HDAC6 genes into Sf-9 insect cells; GST; purchased SignalChem; host or cells: Sf-9 insect cells
# T1 sequence (Q9UBN7 1-1215): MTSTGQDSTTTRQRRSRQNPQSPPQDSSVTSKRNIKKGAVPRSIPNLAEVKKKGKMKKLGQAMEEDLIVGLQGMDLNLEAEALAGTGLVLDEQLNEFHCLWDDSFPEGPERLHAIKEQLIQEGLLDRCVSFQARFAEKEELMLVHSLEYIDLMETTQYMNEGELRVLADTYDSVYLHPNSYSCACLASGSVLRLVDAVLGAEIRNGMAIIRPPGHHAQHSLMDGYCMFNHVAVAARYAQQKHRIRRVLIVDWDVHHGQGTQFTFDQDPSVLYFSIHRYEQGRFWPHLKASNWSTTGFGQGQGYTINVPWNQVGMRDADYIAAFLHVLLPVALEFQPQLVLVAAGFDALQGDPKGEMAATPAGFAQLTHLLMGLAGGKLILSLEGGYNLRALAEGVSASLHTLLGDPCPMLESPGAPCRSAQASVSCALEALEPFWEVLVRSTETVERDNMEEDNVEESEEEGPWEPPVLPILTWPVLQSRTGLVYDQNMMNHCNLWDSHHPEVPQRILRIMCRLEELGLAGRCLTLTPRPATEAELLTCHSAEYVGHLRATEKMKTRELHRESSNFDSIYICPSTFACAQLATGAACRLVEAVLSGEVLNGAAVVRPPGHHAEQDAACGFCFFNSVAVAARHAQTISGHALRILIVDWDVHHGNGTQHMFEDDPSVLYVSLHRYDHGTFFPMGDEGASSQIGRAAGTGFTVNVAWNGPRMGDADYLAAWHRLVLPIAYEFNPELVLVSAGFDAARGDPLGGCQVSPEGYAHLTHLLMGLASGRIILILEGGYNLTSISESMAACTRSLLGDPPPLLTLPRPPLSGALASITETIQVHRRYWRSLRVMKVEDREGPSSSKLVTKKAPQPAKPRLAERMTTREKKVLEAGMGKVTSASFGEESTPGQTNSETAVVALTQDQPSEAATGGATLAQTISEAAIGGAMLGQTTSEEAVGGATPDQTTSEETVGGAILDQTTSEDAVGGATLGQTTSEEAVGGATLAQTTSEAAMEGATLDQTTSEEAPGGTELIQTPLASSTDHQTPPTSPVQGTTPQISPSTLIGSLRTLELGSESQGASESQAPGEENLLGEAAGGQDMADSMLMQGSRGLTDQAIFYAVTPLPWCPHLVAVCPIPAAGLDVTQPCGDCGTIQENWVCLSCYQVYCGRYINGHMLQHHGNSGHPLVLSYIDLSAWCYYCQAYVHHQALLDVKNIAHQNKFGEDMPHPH
# Protocol: (§1) HDAC1/6 Enzyme Inhibitory Assay
# (§2) HDAC1 enzyme and HDAC6 enzyme each prepared by transducing full length HDAC1 and HDAC6 genes into Sf-9 insect cells and purifying by GST affinity column were purchased from SignalChem. Using these enzymes, HDAC1 and/or HDAC6 enzyme inhibitory activities of the compound of the present invention were evaluated. Enzymes were used after preserved at −70° C. HDAC1 or HDAC6 enzyme inhibitory activity of the compound of the present invention was measured using HDAC-Glo™ I/II Assay kit (Promega) according to the following experimental method. The test compound diluted with assay buffer (24 mM Tris-HCl (pH 7.5), 1 mM MgCl2, 0.35 mM KCl, 135 mM NaCl, 0.6 mM Glutathione, 0.01% Tween-20) was added to a 384-well plate by each 2 μL. Then, HDAC1 or HDAC6 enzyme solution diluted with assay buffer was added thereto by each 4 μL, and the plate was incubated at room temperature for 60 min. After incubated, HDAC substrate-Developer solution prepared according to Promega protocol attached to the assay kit was added to the 384-well plate by each 2 μL, and the enzyme reaction was started. After reacting at room temperature for 20 min, luminescence level was measured using plate reader Envision (PerkinElmer). The inhibitory activity of each compound was calculated as a relative activity value when luminescence level in wells without enzyme is considered as 100% inhibition.
# HDAC1 enzyme = molecular target: T2, HDAC1 enzyme (Homo sapiens, UniProt Q13547); assay: HDAC1/6 Enzyme Inhibitory Assay (HDAC-Glo I/II Assay kit), HDAC1; details: 1 μM test compound, wells without enzyme = 100% inhibition; for inhibition at 1 µM: read-out: HDAC1 inhibitory rate (%) (1 μM)
# T2 construct: transducing full length HDAC1 and HDAC6 genes into Sf-9 insect cells; GST; purchased SignalChem; host or cells: Sf-9 insect cells
# Protocol: as §1, §2
# HDAC9 enzyme = molecular target: T3, HDAC9 enzyme (Homo sapiens, UniProt Q9UKV0); assay: HDAC9 Enzyme Inhibitory Assay (HDAC-Glo class IIa); details: 1 μM test compound, wells without enzyme = 100% inhibition; for inhibition at 1 µM: read-out: HDAC9 inhibitory rate (%) (1 μM)
# T3 construct: transducing full length HDAC9 gene into Sf-9 insect cells; made in house; host or cells: Sf-9 insect cells
# Protocol: HDAC9 Enzyme Inhibitory Assay
# Enzyme was prepared by transducing full length HDAC9 gene into Sf-9 insect cells and purifying by Ni-NTA affinity column, and HDAC9 enzyme inhibitory activity was evaluated. Enzymes were used after preserved at −70° C. HDAC9 enzyme inhibitory activity of the test compound was measured using HDAC-Glo class IIa (Promega) according to the following experimental method. The test compound diluted with assay buffer (24 mM Tris-HCl (pH 7.5), 1 mM MgCl2, 0.35 mM KCl, 135 mM NaCl, 0.6 mM Glutathione, 0.01% Tween-20) was added to a 384-well plate by each 2 μL. Then, HDAC9 enzyme solution diluted with assay buffer was added thereto by each 2 μL, and the plate was incubated at room temperature for 60 min. After incubated, HDAC substrate-Developer solution prepared according to Promega protocol was added to the 384-well plate by each 4 μL, and the enzyme reaction was started. After reacting at room temperature for 20 min, luminescence level was measured using plate reader Envision (PerkinElmer). The inhibitory activity of each compound was calculated as a relative activity value when luminescence level in wells without enzyme is considered as 100% inhibition.
# T3 sequence (Q9UKV0 whole entry, species assumed): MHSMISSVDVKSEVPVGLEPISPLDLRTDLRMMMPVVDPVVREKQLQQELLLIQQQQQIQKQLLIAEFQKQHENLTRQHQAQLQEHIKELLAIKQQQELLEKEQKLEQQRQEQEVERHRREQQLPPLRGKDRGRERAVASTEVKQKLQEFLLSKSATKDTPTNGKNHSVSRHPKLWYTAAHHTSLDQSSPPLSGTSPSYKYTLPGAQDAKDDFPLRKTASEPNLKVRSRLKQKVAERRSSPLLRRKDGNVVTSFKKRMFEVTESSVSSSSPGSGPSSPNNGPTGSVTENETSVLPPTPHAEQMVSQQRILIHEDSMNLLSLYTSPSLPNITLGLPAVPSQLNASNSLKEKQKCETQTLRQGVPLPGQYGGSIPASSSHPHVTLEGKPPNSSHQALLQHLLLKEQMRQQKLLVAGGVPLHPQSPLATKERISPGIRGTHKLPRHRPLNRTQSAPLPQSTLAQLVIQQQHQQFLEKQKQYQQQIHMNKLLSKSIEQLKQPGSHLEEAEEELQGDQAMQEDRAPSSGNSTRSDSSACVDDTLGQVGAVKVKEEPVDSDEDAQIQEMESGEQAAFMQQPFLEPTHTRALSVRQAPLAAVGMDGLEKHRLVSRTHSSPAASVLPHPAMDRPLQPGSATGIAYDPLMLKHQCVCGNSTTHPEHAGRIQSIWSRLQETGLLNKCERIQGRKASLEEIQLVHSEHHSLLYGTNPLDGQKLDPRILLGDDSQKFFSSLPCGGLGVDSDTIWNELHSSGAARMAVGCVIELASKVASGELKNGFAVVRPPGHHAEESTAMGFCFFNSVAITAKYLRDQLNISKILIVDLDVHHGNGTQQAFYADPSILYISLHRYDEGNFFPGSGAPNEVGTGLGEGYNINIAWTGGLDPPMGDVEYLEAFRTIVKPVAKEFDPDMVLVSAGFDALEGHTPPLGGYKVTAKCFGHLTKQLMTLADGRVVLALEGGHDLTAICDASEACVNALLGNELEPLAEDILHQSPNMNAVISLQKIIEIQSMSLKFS
# T2 sequence (Q13547 whole entry): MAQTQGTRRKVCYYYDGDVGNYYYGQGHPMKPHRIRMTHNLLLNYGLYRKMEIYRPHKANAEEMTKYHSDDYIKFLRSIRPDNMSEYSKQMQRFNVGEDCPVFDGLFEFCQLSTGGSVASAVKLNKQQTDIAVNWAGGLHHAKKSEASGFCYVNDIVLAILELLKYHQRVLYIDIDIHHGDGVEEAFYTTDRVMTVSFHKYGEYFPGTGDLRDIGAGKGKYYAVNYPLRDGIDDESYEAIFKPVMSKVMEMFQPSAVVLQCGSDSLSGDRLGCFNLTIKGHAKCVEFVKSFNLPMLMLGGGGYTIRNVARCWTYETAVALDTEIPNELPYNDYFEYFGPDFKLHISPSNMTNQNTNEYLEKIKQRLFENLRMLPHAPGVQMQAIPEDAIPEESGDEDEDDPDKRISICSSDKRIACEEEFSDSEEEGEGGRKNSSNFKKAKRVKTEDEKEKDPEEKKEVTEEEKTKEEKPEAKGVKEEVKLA
SMILES,inhibition at 1 µM (HDAC6 enzyme),inhibition at 1 µM (HDAC1 enzyme),inhibition at 1 µM (HDAC9 enzyme),HDAC6 inhibitory rate (%) (1 μM) (HDAC6 enzyme),HDAC1 inhibitory rate (%) (1 μM) (HDAC1 enzyme; 1 µM),HDAC9 inhibitory rate (%) (1 μM) (HDAC9 enzyme; 1 µM)
"CC(C)(C)OC(=O)N1C[C@@H](N2Cc3ccc(-c4noc(C(F)(F)F)n4)cc3C2=O)[C@H](c2ccccc2)C1 (relative stereo) [Example 2, tert-butyl trans-3-(1-oxo-6-(5-(trifluoromethyl)-1,2,4-oxadiazol-3-yl)-1,3-dihydro-2H-isoindol-2-yl)-4-phenylpyrrolidine-1-carboxylate]",98%,33%,90%,–,–,–
"O=C1c2cc(-c3noc(C(F)(F)F)n3)ccc2CN1[C@@H]1CNC[C@H]1c1ccccc1 (relative stereo) [Example 3, trans-2-(4-phenylpyrrolidin-3-yl)-6-(5-(trifluoromethyl)-1,2,4-oxadiazol-3-yl)isoindolin-1-one]",96%,87%,98%,–,–,–
"CC(=O)N1C[C@@H](N2Cc3ccc(-c4noc(C(F)(F)F)n4)cc3C2=O)[C@H](c2ccccc2)C1 (relative stereo) [Example 4, trans-2-(1-acetyl-4-phenylpyrrolidin-3-yl)-6-(5-(trifluoromethyl)-1,2,4-oxadiazol-3-yl)isoindolin-1-one]",99%,69%,96%,–,–,–
"O=C1c2cc(-c3noc(C(F)(F)F)n3)ccc2CN1[C@@H]1CCOC[C@H]1c1ccccc1 (relative stereo) [Example 5, trans-2-(3-phenyltetrahydro-2H-pyran-4-yl)-6-(5-(trifluoromethyl)-1,2,4-oxadiazol-3-yl)isoindolin-1-one]",–,–,–,99%,78%,95%
"CC(C)(C)OC(=O)N[C@@H]1CCCC[C@H]1N1Cc2ccc(-c3noc(C(F)(F)F)n3)cc2C1=O (relative stereo) [Example 6, tert-butyl trans-(2-(1-oxo-6-(5-(trifluoromethyl)-1,2,4-oxadiazol-3-yl)-1,3-dihydro-2H-isoindol-2-yl)cyclohexyl)carbamate]",95%,9%,65%,–,–,–
"N[C@@H]1CCCC[C@H]1N1Cc2ccc(-c3noc(C(F)(F)F)n3)cc2C1=O (relative stereo) [Example 7, trans-2-(2-aminocyclohexyl)-6-(5-(trifluoromethyl)-1,2,4-oxadiazol-3-yl)isoindolin-1-one]",76%,6%,72%,–,–,–
"CC(=O)N[C@@H]1CCCC[C@H]1N1Cc2ccc(-c3noc(C(F)(F)F)n3)cc2C1=O (relative stereo) [Example 8, trans-N-(2-(1-oxo-6-(5-(trifluoromethyl)-1,2,4-oxadiazol-3-yl)-1,3-dihydro-2H-isoindol-2-yl)cyclohexyl)acetamide]",98%,10%,43%,–,–,–
"O=C(N[C@@H]1CCCC[C@H]1N1Cc2ccc(-c3noc(C(F)(F)F)n3)cc2C1=O)c1ccccc1 (relative stereo) [Example 9, trans-N-(2-(1-oxo-6-(5-(trifluoromethyl)-1,2,4-oxadiazol-3-yl)-1,3-dihydro-2H-isoindol-2-yl)cyclohexyl)benzamide]",97%,54%,89%,–,–,–
"O=C(c1ccccc1)N1C[C@@H](N2Cc3ccc(-c4noc(C(F)(F)F)n4)cc3C2=O)[C@H](c2ccccc2)C1 (relative stereo) [Example 10, trans-2-(1-benzoyl-4-phenylpyrrolidin-3-yl)-6-(5-(trifluoromethyl)-1,2,4-oxadiazol-3-yl)isoindolin-1-one]",96%,63%,96%,–,–,–
"O=C(C1CC1)N1C[C@@H](N2Cc3ccc(-c4noc(C(F)(F)F)n4)cc3C2=O)[C@H](c2ccccc2)C1 (relative stereo) [Example 11, trans-2-(1-(cyclopropylcarbonyl)-4-phenylpyrrolidin-3-yl)-6-(5-(trifluoromethyl)-1,2,4-oxadiazol-3-yl)isoindolin-1-one]",100%,70%,95%,–,–,–
"O=C(N[C@@H]1CCCC[C@H]1N1Cc2ccc(-c3noc(C(F)(F)F)n3)cc2C1=O)C1CC1 (relative stereo) [Example 12, trans-N-(2-(1-oxo-6-(5-(trifluoromethyl)-1,2,4-oxadiazol-3-yl)-1,3-dihydro-2H-isoindol-2-yl)cyclohexyl)cyclopropanecarboxamide]",98%,9%,48%,–,–,–
"O=C1c2cc(-c3noc(C(F)(F)F)n3)ccc2CN1[C@@H]1CCCC[C@H]1c1ccccc1 (relative stereo) [Example 17, trans-2-(2-phenylcyclohexyl)-6-(5-(trifluoromethyl)-1,2,4-oxadiazol-3-yl)isoindolin-1-one]",98%,52%,85%,–,–,–
"O=C1CCCN1[C@@H]1CCCC[C@H]1N1Cc2ccc(-c3noc(C(F)(F)F)n3)cc2C1=O (relative stereo) [Example 18, trans-2-(2-(2-oxopyrrolidin-1-yl)cyclohexyl)-6-(5-(trifluoromethyl)-1,2,4-oxadiazol-3-yl)isoindolin-1-one]",99%,–,47%,–,–,–
"O=C1c2ccc(-c3noc(C(F)(F)F)n3)cc2CN1c1ccccc1 [Example 1, 2-phenyl-5-(5-(trifluoromethyl)-1,2,4-oxadiazol-3-yl)isoindolin-1-one]",8%,–,55%,–,–,–
"O=C1CCCN1[C@@H]1CCCC[C@H]1N1Cc2ccc(-c3noc(C(F)(F)F)n3)cc2C1=O [Example 191, 2-((1R,2R)-2-(2-oxopyrrolidin-1-yl)cyclohexyl)-6-(5-(trifluoromethyl)-1,2,4-oxadiazol-3-yl)isoindolin-1-one]",99%,–,66%,–,–,–
